“Also recorded” adds a separate entry of the source. Each block holds one molecule with its values, some of them ahead of it.
Columns and labels:
Assay type in all cases: physicochemical
[1] = Dynamic vapor sorption (moisture uptake)
Protocol: Samples were analyzed using an Aquadyne DVS-2 gravimetric water sorption analyzer. The relative humidity was adjusted between 2-95% and the weight of the sample was continuously monitored and recorded.
[…]: β-GPA maleate (1:1) Form II, β-GPA fumarate (1:1), β-GPA maleate (2:1), β-GPA succinate (2:1) and β-GPA oxalate (1:1) were analyzed by DVS experiment followed by XRPD analysis of the sample at the end of the experiment.
Sample 2162-64-1 was analyzed by DVS in triplicate and the post DVS samples were characterized by XRPD to identify the form at the end of the experiment.

[2] = Determination of bulk and tapped density; details: for Tapped density (ρT): Tap density analyzer
Protocol: The bulk density of β-GPA oxalate (Pattern 18 B), succinate (Pattern 15A), and fumarate (Pattern 7A) were determined by pouring in a known amount of salt (g) into a measuring cylinder. The volume (Vi) occupied by the salt was recorded and the bulk density (ρB) was determined using equation 1. ρB=g/Vi (1)
The tapped densities of the salts were determined using a Tap density analyzer. A known amount of salt was poured (g) into a measuring cylinder and the initial volume was recorded and tapped using a Tap density analyzer. The final volume (Vf) after tapping was recorded and the tapped density (ρT) was calculated by using equation 2. ρT=g/Vf (2)

[3] = Solid form stability of salts in different solvents (slurry); details: 48 hours, room temperature
Protocol: Three salts were studied for solid form stability in water (disproportionation test), methanol, acetonitrile, and acetone:water (9:1) for 48 hours at room temperature.

[4] = Flowability measurement using Hanson Flodex unit; details: density and Hanson Flodex data
Text: A cylindrical vessel is secured to the stand and above that a funnel is also secured such that the bottom of the funnel is close to the vessel. A powder load of ≈50-60 g is then poured through the funnel into the middle of the cylinder. The lever device is pulled to open the hole in the disk quickly and without vibration. If a powder slowly flows through the small-diameter holes, leaving a cavity shaped like an upside-down, truncated cone, the test is considered positive. If a powder flocculates in bulk and falls abruptly, forming a cylindrical cavity, the test is considered negative. […] If the experiment is negative, the powder is tested again with a disk having a larger hole.

[5] = Temperature cycling of 1:1 β-GPA fumarate
Protocol: The following (Table 25) experiments were performed to isolate possible polymorphic forms of 1:1 β-GPA fumarate.

[6] = Solid form stability of 1:1 β-GPA fumarate at various temperature/humidity conditions
[7] = Gravimetric solubility of β-GPA fumarate in solvents; details: fifteen solvents and solvent mixtures at 15 and 45° C.
Protocol: Solubility of β-GPA fumarate was measured gravimetrically in fifteen different solvents and solvent mixtures at 15 and 45° C. About 100 mg of the compound was dispensed in ten volumes (1 mL) of the solvent/solvent mixture and slurried for 48 hours. Table 23 represents the solubility of β-GPA fumarate in different solvents. After 48 hours the vials were centrifuged. The supernatant was collected and left for slow evaporation under vacuum at 45° C. and solubility was determined. The solids obtained after centrifugation and evaporation were analyzed by XRPD.

[8] = Solid form stability of 1:1 β-GPA fumarate at various temperature/humidity conditions; details: for XRPD after stability study: a week
Protocol: The solid form stability of β-GPA fumarate was studied at various temperature/humidity conditions as listed in Table 22 for a week using saturated salt solution chambers. The samples were analyzed by XRPD after a week.

[9] = Solubility of β-GPA in water
[10] = Stability of free β-GPA at 40° C. at 75% humidity; details: 40° C. at 75% humidity after 4 weeks
[11] = Determination of Carr's index and Hausner ratio; details: scale of Table 5
Text: The flow properties of β-GPA are sub-optimal. The bulk density is 0.389 g/cc and the tapped density is 0.627 g/cc. These measurements can be used to calculate the Carr's index and Hausner ratio for a substance. The Carr's index and Hausner ratio are indicators of flowability of a powder. As known in the art, e.g., as described in Carr R. L. Chem. Eng. 1965, 72, 163-168, the relationship to flowability of a powder to the Carr's index and Hausner ratio is based on the scale shown in Table 5 below.
Carr's index or Carr's compressibility index (C) is an indication of the compressibility of a powder. It can be calculated using the equation below: Carr's index(C)=100(Vi−Vf)/Vi (3)
The Hausner ratio is a number that is correlated to the flowability of a powder or granular material. It is calculated by using the equation below: Hausner ratio=Vi/Vf (4)

[12] = Experiments performed on 2:1 fumarate salt (Pattern 7C)
Protocol: To confirm the above hypothesis the following experiments (Table 24) were performed on the lyophilized sample (Pattern 7C): […]

[13] = 50 mg slurried in 0.2 mL of water

Structure (SMILES): N=C(N)NCCC(=O)O.O=C(O)C(=O)O [β-GPA oxalate (1:1)]
- Solid form after the DVS experiment (XRPD) ([1]; XRPD of post DVS sample): retained their XRPD
- Solid form after the DVS experiment (XRPD) ([1]; XRPD of post DVS sample, listed as 1:1 oxalate salt): no form change
- Solid form after the DVS experiment (XRPD) ([1]; XRPD of post DVS sample, listed as 1:1 β-GPA oxalate): no form change
- Bulk density (ρB) [2]: 0.505 g/cc
- Tapped density (ρT) [2]: 0.623 g/cc
- Solid form stability (XRPD) after slurry in acetone:water (9:1) [3]: retain their XRPD pattern
- Solid form stability (XRPD) after slurry in acetonitrile [3]: retain their XRPD pattern
- Solid form stability (XRPD) after slurry in methanol [3]: retain their XRPD pattern
- Solid form stability (XRPD) after slurry in water (disproportionation test) [3]: retained their XRPD patterns
- Solid form stability (XRPD) after slurry in water (disproportionation test) ([3]; listed as 1:1 β-GPA oxalate): retained their XRPD pattern
- Flow character (summary from the experimental data) [4]: fair

Structure (SMILES): N=C(N)NCCC(=O)O.O=C(O)/C=C/C(=O)O [β-GPA fumarate (1:1)]
- Result (XRPD) after temperature cycling ([5]; 50° C. 2 hours, RT, 50° C. 48 hours): Pattern 7A
- Result (XRPD) after temperature cycling ([5]; dry ice-acetone 30 minutes, RT): Pattern 7A
- Result (XRPD) after temperature cycling ([5]; heated to 150° C. and brought to room temperature, three cycles): Pattern 7A
- Result (XRPD) after temperature cycling ([5]; heated to 165° C., immediately dry ice/acetone cooling bath 15 min): Pattern 7D
- Appearance after heating ([5]; heating at 160-165° C. (2162-84-7)): yellow to brownish solid
- Result (XRPD) after temperature cycling ([5]; vacuum oven 130° C. 2 hours, RT, 130° C. 48 hours): Pattern 7A
- Solid form after the DVS experiment (XRPD) ([1]; XRPD of post DVS sample): presence of two peaks from the β-GPA
- Solid form after the DVS experiment (XRPD) ([1]; XRPD of post DVS sample, listed as 1:1 fumarate): presence of β-GPA peaks along with Pattern 7A
- Solid form after the DVS experiment (XRPD) ([1]; XRPD of post DVS sample, listed as 1:1 fumarate salt): no form change
- Moisture uptake during DVS ([1]; scaled-up sample 2162-64-1, DVS in triplicate): less than 0.1%
- Solid form after the DVS experiment (XRPD) ([1]; scaled-up sample 2162-64-1, three DVS experiments): identical to β-GPA fumarate (Pattern 7A); also recorded: did not exhibit any dissociation of the salt
- Bulk density (ρB) [2]: 0.576 g/cc
- Tapped density (ρT) [2]: 0.613 g/cc
- Solid form stability (XRPD) after slurry in acetone:water (9:1) [3]: retain their XRPD pattern
- Solid form stability (XRPD) after slurry in acetonitrile [3]: retain their XRPD pattern
- Solid form stability (XRPD) after slurry in methanol [3]: retain their XRPD pattern
- Solid form stability (XRPD) after slurry in water (disproportionation test) [3]: retained their XRPD patterns
- Solid form stability (XRPD) after slurry in water (disproportionation test) ([3]; listed as 1:1 β-GPA fumarate): retained their XRPD pattern
- Flow character (summary from the experimental data) [4]: excellent
- XRPD after stability study ([6]; 60 ° C., 50% relative humidity, a week): Pattern 7A
- Solid form stability at high humidity (XRPD) ([6]; sample 2162-64-1, RH>95% at room temperature (20° C.), 48 hours): retain its original XRPD pattern (Pattern 7A); also recorded: stable
- Solid form of precipitates after 48 hours slurries (XRPD) [7]: no form transformations
- XRPD after stability study ([8]; 20 ° C., 43% relative humidity): Pattern 7A
- XRPD after stability study ([8]; 20 ° C., 59% relative humidity): Pattern 7A
- XRPD after stability study ([8]; 20 ° C., 73% relative humidity): Pattern 7A
- XRPD after stability study ([8]; 20 ° C., >95% relative humidity): Pattern 7A
- XRPD after stability study ([8]; 40 ° C., 82% relative humidity): Pattern 7A
- XRPD after stability study ([8]; 60 ° C., 80% relative humidity): Pattern 7A
- XRPD after stability study (summary) ([8]; various temperature/RH conditions of Table 22, a week): retained the original XRPD pattern (Pattern 7A)

Structure (SMILES): N=C(N)NCCC(=O)O.O=C(O)/C=C\C(=O)O [β-GPA maleate (1:1) Form II]
- Solid form after the DVS experiment (XRPD) ([1]; XRPD of post DVS sample): no form change
- Solid form stability (XRPD) after slurry in acetone:water (9:1) [3]: matched with the original pattern of the salt (Pattern 6D) along with some additional peaks
- Solid form stability (XRPD) after slurry in acetonitrile [3]: retain its XRPD pattern
- Solid form stability (XRPD) after slurry in methanol [3]: retain its XRPD pattern
- Solid form stability (XRPD) after slurry in water (disproportionation test) [3]: retained their XRPD patterns

Structure (SMILES): N=C(N)NCCC(=O)O.N=C(N)NCCC(=O)O.O=C(O)/C=C/C(=O)O [2:1 fumarate salt]
- Stability of the crystalline form of the 2:1 salt [12]: unstable
- Result: XRPD pattern that Pattern 7C converted to [12, 13]: Pattern 7A
- Time to conversion of Pattern 7C to Pattern 7A [12, 13]: (within 10 minutes
- Result: XRPD pattern that Pattern 7C converted to ([12]; heated at 50° C. 5-10 minutes): Pattern 7A
- Result: XRPD pattern that Pattern 7C converted to ([12]; humidity chamber with RH >95% for 48 hours): Pattern 7A
- Result: XRPD pattern that Pattern 7C converted to ([12]; mixed with Pattern 7A, undisturbed at room temperature (48 hours)): Pattern 7A
- Form conversion of the 2:1 salt ([12]; slurried in water, heated, or under high humidity conditions): converted to the 1:1 salt

The next lines start with results.

- Solid form after the DVS experiment (XRPD) ([1]; XRPD of post DVS sample): retained their XRPD
- Solid form after the DVS experiment (XRPD) ([1]; XRPD of post DVS sample, listed as 2:1 succinate salt): no form change
- Solid form after the DVS experiment (XRPD) ([1]; XRPD of post DVS sample, listed as 2:1 β-GPA succinate): no form change
- Bulk density (ρB) [2]: 0.405 g/cc
- Tapped density (ρT) [2]: 0.472 g/cc
- Solid form stability (XRPD) after slurry in acetone:water (9:1) [3]: presence of β-GPA
- Solid form stability (XRPD) after slurry in acetonitrile [3]: retain its original form
- Solid form stability (XRPD) after slurry in acetonitrile ([3]; listed as 2:1 β-GPA succinate): retain its XRPD pattern
- Solid form stability (XRPD) after slurry in methanol [3]: retain its original form
- Solid form stability (XRPD) after slurry in methanol ([3]; listed as 2:1 β-GPA succinate): retain its XRPD pattern
- Flow character (summary from the experimental data) [4]: good
Structure (SMILES): N=C(N)NCCC(=O)O.N=C(N)NCCC(=O)O.O=C(O)CCC(=O)O [β-GPA succinate (2:1)]
- Solid form stability (XRPD) after slurry in water (disproportionation test) [3]: showed two peaks from β-GPA after 6 hours
- Solid form stability (XRPD) after slurry in water (disproportionation test) ([3]; listed as 2:1 β-GPA succinate): started showing up peaks from β-GPA after 6 hours

- solubility [9]: > 50 mg/mL
- Moisture uptake during the DVS experiment ([1]; DVS, relative humidity cycled up to 95%): around 0.1%
- Solid form after the DVS experiment (XRPD) ([1]; XRPD of post DVS sample): No change in the solid form
- Bulk density (ρB) [2]: 0.389 g/cc
- Tapped density (ρT) [2]: 0.627 g/cc
- Degradation [10]: No degradation
- Flow character (summary from the experimental data) [4]: poor
- Flow character by Carr's index [11]: Very poor (32-37)
Structure (SMILES): N=C(N)NCCC(=O)O [β-GPA, β-Guanidinopropionic acid, reference compound]

— patent US9827217B2, “Pharmaceutically acceptable salts of B-guanidinopropionic acid with improved properties and uses thereof” (Rgenix, Inc., priority 2015, dated 2017)
